Test results published in the supplement of paper PMC10307832.

Experiments:
Assay in all cases: relative viability (nuclei count vs DMSO), 5 days (fraction); higher = more cells survive
NCI-H647 = tested on: NCI-H647
How it was run: (§1)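 The day after seeding in 1536-well plates, lung cancer cell lines were treated by pin tool with a single drug, or with a fixed anchor-drug dose together with five library-drug doses (not always all listed) in √10 steps. After 5 days, a combined fix-and-stain solution (final 0.05% Triton X-100, 1% formaldehyde, 1 ug/ml Hoechst) was added. Nuclei counted on 4× images gave relative viability as treated counts over vehicle counts, reported as the median of duplicate plates.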

SK-MES-1 = tested on: SK-MES-1
How it was run: as §1

NCI-H2228 = tested on: NCI-H2228
How it was run: as §1

LC-2-ad = tested on: LC-2-ad
How it was run: as §1

NCI-H596 = tested on: NCI-H596
How it was run: as §1

NCI-H1395 = tested on: NCI-H1395
How it was run: as §1

NCI-H2170 = tested on: NCI-H2170
How it was run: as §1

HCC-366 = tested on: HCC-366
How it was run: as §1

HARA = tested on: HARA
How it was run: as §1

NCI-H1792 = tested on: NCI-H1792
How it was run: as §1

EKVX = tested on: EKVX
How it was run: as §1

HCC-44 = tested on: HCC-44
How it was run: as §1

BEN = tested on: BEN
How it was run: as §1

NCI-H1734 = tested on: NCI-H1734
How it was run: as §1

SK-LU-1 = tested on: SK-LU-1
How it was run: as §1

HCC-827 = tested on: HCC-827
How it was run: as §1

NCI-H2009 = tested on: NCI-H2009
How it was run: as §1

NCI-H2405 = tested on: NCI-H2405
How it was run: as §1

NCI-H661 = tested on: NCI-H661
How it was run: as §1

LOU-NH91 = tested on: LOU-NH91
How it was run: as §1

NCI-H1355 = tested on: NCI-H1355
How it was run: as §1

NCI-H2087 = tested on: NCI-H2087
How it was run: as §1

NCI-H1437 = tested on: NCI-H1437
How it was run: as §1

COc1cc(N2CCC(C(N)=O)CC2)ccc1Nc1nc(N)c(Cl)c(Nc2ccccc2S(=O)(=O)C(C)C)n1 [HG-5-88-01] + Cc1nc(NC(=O)N2CCC[C@H]2C(N)=O)sc1-c1ccnc(C(C)(C)C(F)(F)F)c1 [Alpelisib] (partner 2 µM)
relative viability (NCI-H647; first compound 0.04 µM): 1.09 | relative viability (NCI-H647; first compound 0.1265 µM): 1.15 | relative viability (NCI-H647; first compound 1.265 µM): 1.09 | relative viability (NCI-H647; first compound 4 µM): 1.4 | relative viability (SK-MES-1; first compound 0.04 µM): 0.925 | relative viability (SK-MES-1; first compound 0.1265 µM): 0.582 | relative viability (SK-MES-1; first compound 0.4 µM): 1.07 | relative viability (SK-MES-1; first compound 1.265 µM): 0.941 | relative viability (SK-MES-1; first compound 4 µM): 0.86 | relative viability (NCI-H2228; first compound 0.04 µM): 0.242 | relative viability (NCI-H2228; first compound 0.1265 µM): 0.297 | relative viability (NCI-H2228; first compound 0.4 µM): 0.324 | relative viability (NCI-H2228; first compound 1.265 µM): 0.224 | relative viability (NCI-H2228; first compound 4 µM): 0.476 | relative viability (LC-2-ad; first compound 0.04 µM): 0.91 | relative viability (LC-2-ad; first compound 0.1265 µM): 0.924 | relative viability (LC-2-ad; first compound 0.4 µM): 0.84 | relative viability (LC-2-ad; first compound 1.265 µM): 0.856 | relative viability (LC-2-ad; first compound 4 µM): 0.871 | relative viability (NCI-H596; first compound 0.04 µM): 0.529 | relative viability (NCI-H596; first compound 0.1265 µM): 0.477 | relative viability (NCI-H596; first compound 0.4 µM): 0.587 | relative viability (NCI-H596; first compound 1.265 µM): 0.362 | relative viability (NCI-H596; first compound 4 µM): 0.493 | relative viability (NCI-H1395; first compound 0.04 µM): 1.09 | relative viability (NCI-H1395; first compound 0.1265 µM): 1.06 | relative viability (NCI-H1395; first compound 0.4 µM): 1.1 | relative viability (NCI-H1395; first compound 1.265 µM): 0.909 | relative viability (NCI-H1395; first compound 4 µM): 0.986 | relative viability (NCI-H2170; first compound 0.04 µM): 0.761 | relative viability (NCI-H2170; first compound 0.1265 µM): 0.833 | relative viability (NCI-H2170; first compound 0.4 µM): 0.795 | relative viability (NCI-H2170; first compound 1.265 µM): 0.46 | relative viability (NCI-H2170; first compound 4 µM): 0.803 | relative viability (HCC-366; first compound 0.04 µM): 0.49 | relative viability (HCC-366; first compound 0.1265 µM): 0.382 | relative viability (HCC-366; first compound 0.4 µM): 0.309 | relative viability (HCC-366; first compound 1.265 µM): 0.418 | relative viability (HCC-366; first compound 4 µM): 0.327 | relative viability (HARA; first compound 0.04 µM): 0.938 | relative viability (HARA; first compound 0.1265 µM): 0.777 | relative viability (HARA; first compound 0.4 µM): 0.742 | relative viability (HARA; first compound 1.265 µM): 0.779 | relative viability (HARA; first compound 4 µM): 0.799 | relative viability (NCI-H1792; first compound 0.04 µM): 0.874 | relative viability (NCI-H1792; first compound 0.1265 µM): 0.686 | relative viability (NCI-H1792; first compound 0.4 µM): 0.654 | relative viability (NCI-H1792; first compound 1.265 µM): 0.635 | relative viability (NCI-H1792; first compound 4 µM): 0.949 | relative viability (EKVX; first compound 0.04 µM): 0.888 | relative viability (EKVX; first compound 0.1265 µM): 0.914 | relative viability (EKVX; first compound 0.4 µM): 0.823 | relative viability (EKVX; first compound 4 µM): 0.814 | relative viability (HCC-44; first compound 0.04 µM): 0.858 | relative viability (HCC-44; first compound 0.1265 µM): 0.824 | relative viability (HCC-44; first compound 0.4 µM): 0.701 | relative viability (HCC-44; first compound 1.265 µM): 0.68 | relative viability (HCC-44; first compound 4 µM): 0.471 | relative viability (BEN; first compound 0.04 µM): 0.948 | relative viability (BEN; first compound 0.1265 µM): 1.03 | relative viability (BEN; first compound 0.4 µM): 1.04 | relative viability (BEN; first compound 1.265 µM): 0.853 | relative viability (BEN; first compound 4 µM): 1.15 | relative viability (NCI-H1734; first compound 0.04 µM): 0.633 | relative viability (NCI-H1734; first compound 0.1265 µM): 0.657 | relative viability (NCI-H1734; first compound 0.4 µM): 0.727 | relative viability (NCI-H1734; first compound 1.265 µM): 0.713 | relative viability (NCI-H1734; first compound 4 µM): 0.799 | relative viability (SK-LU-1; first compound 0.04 µM): 1.18 | relative viability (SK-LU-1; first compound 0.1265 µM): 0.988 | relative viability (SK-LU-1; first compound 0.4 µM): 0.895 | relative viability (SK-LU-1; first compound 1.265 µM): 0.966 | relative viability (SK-LU-1; first compound 4 µM): 0.797 | relative viability (HCC-827; first compound 0.04 µM): 1.04 | relative viability (HCC-827; first compound 0.1265 µM): 1.01 | relative viability (HCC-827; first compound 0.4 µM): 1.05 | relative viability (HCC-827; first compound 1.265 µM): 0.849 | relative viability (HCC-827; first compound 4 µM): 0.353 | relative viability (NCI-H2009; first compound 0.04 µM): 1.13 | relative viability (NCI-H2009; first compound 0.1265 µM): 1.05 | relative viability (NCI-H2009; first compound 0.4 µM): 1.05 | relative viability (NCI-H2009; first compound 1.265 µM): 1.17 | relative viability (NCI-H2009; first compound 4 µM): 1.14 | relative viability (NCI-H2405; first compound 0.04 µM): 0.749 | relative viability (NCI-H2405; first compound 0.1265 µM): 0.832 | relative viability (NCI-H2405; first compound 0.4 µM): 0.726 | relative viability (NCI-H2405; first compound 1.265 µM): 0.418 | relative viability (NCI-H2405; first compound 4 µM): 0.794 | relative viability (NCI-H661; first compound 0.04 µM): 0.609 | relative viability (NCI-H661; first compound 0.1265 µM): 0.773 | relative viability (NCI-H661; first compound 0.4 µM): 0.916 | relative viability (NCI-H661; first compound 4 µM): 0.693 | relative viability (LOU-NH91; first compound 0.04 µM): 0.713 | relative viability (LOU-NH91; first compound 0.1265 µM): 0.67 | relative viability (LOU-NH91; first compound 0.4 µM): 0.659 | relative viability (LOU-NH91; first compound 1.265 µM): 0.545 | relative viability (LOU-NH91; first compound 4 µM): 0.528 | relative viability (NCI-H1355; first compound 0.04 µM): 0.881 | relative viability (NCI-H1355; first compound 0.1265 µM): 0.934 | relative viability (NCI-H1355; first compound 0.4 µM): 0.775 | relative viability (NCI-H1355; first compound 1.265 µM): 0.767 | relative viability (NCI-H1355; first compound 4 µM): 0.737 | relative viability (NCI-H2087; first compound 0.04 µM): 0.967 | relative viability (NCI-H2087; first compound 0.1265 µM): 1.17 | relative viability (NCI-H2087; first compound 0.4 µM): 0.997 | relative viability (NCI-H2087; first compound 1.265 µM): 1.04 | relative viability (NCI-H2087; first compound 4 µM): 0.974 | relative viability (NCI-H1437; first compound 0.04 µM): 1.03 | relative viability (NCI-H1437; first compound 0.1265 µM): 1.09 | relative viability (NCI-H1437; first compound 0.4 µM): 0.873 | relative viability (NCI-H1437; first compound 1.265 µM): 0.964 | relative viability (NCI-H1437; first compound 4 µM): 1.02
